{
  "source": "paper PMC5893132",
  "about": "“Selective inhibition of histamine-evoked Ca^2+ signals by compartmentalized cAMP in human bronchial airway smooth muscle cells” (Cell Calcium, 2018)",
  "key": {"[1]": {"system": "intracellular cAMP in hBASMCs", "assay": "Intracellular cAMP in hBASMCs by [3H]-adenine labeling", "type": "cell-based, human", "conditions": "isoproterenol 10 μM, sustained incubation; [3H]-adenine labeling", "experimental": "hBASMCs in 24-well plates (50,000 cells per well) were grown to confluence. The medium was then replaced with serum-free SMGM-2, and after 24 h this was supplemented with [^3H]-adenine (1 μCi per well, 18.4 Ci·mmol^−1). After 2 h at 37 °C in humidified air with 5% CO2, the medium was removed, and the cells were washed twice with HBS. The cells were stimulated at 20 °C in HBS. Incubations were terminated by removal of the medium, addition of ice-cold trichloroacetic acid (5%, 1 mL) and rapid freezing. This protocol ensured that only intracellular [^3H]-cAMP was detected. [^3H]-adenine nucleotides were separated by column chromatography, and the activity was determined by liquid scintillation counting using Ultra-gold scintillant. Results are presented as [^3H]-cAMP activity as a percentage of the sum of the activities of the fractions containing [^3H]-cAMP, [^3H]-ATP, [^3H]-ADP and [^3H]-AMP; henceforth, reported as [^3H]-cAMP (%)."}, "[2]": {"system": "histamine-evoked Ca^2+ signals in hBASMCs", "assay": "Histamine-evoked Ca2+ signals in populations of fluo-4-loaded hBASMCs", "type": "cell-based, human", "conditions": "HBSS", "outline": "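Serum-starved hBASMCs loaded with fluo-4-AM (2 μM, or FLIPR calcium 4 kit) with probenecid 2.5 mM; recordings at 20 °C in HEPES-buffered saline pH 7.3, sometimes Ca²⁺-free or with BAPTA. Fluorescence calibrated to [Ca²⁺]i (KD 345 nM); one concentration per well, logistic fits giving EC50, maximal response, Hill slope.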"}},
  "note": "Counter-ions that a name gives are not always drawn.",
  "data": [
    {"smiles": "CC(C)NC[C@H](O)c1ccc(O)c(O)c1", "note": "[isoproterenol, (−)-isoproterenol hydrochloride]", "values": [
      {"measurement": "stimulated cAMP concentration after 30 min relative to after 1 min", "setting": "[1]", "result": 2.8, "unit": "fold"},
      {"measurement": "IC50", "setting": "[2]; Homo sapiens, added 5 min before histamine 10 μM, n = 4, read-out: pIC50 for inhibition of histamine-evoked Ca2+ signals (converted)", "result": 8.13, "unit": "nM"},
      {"measurement": "maximal amplitude of the peak increase in [Ca2+]i evoked by histamine after pre-treatment", "setting": "[2]; after isoproterenol 10 μM, 5 min, n = 7, control 242 ± 15 nM", "result": "168 ± 19", "unit": "nM"}
    ]}
  ]
}
